Data on one cell line can be found in the supplement of paper PMC10307832.

Assay in all cases: relative viability (nuclei count vs DMSO), 5 days (fraction); higher = more cells survive
Compound in experiment [1]: COc1cc2nccc(Oc3ccc(NC(=O)C4(C(=O)Nc5ccc(F)cc5)CC4)cc3)c2cc1OC [Cabozantinib] + Nc1ncn([C@H]2C[C@H](O)[C@@H](CO)O2)c(=O)n1 [Decitabine] (partner 2 µM)
The procedure, abridged: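 The day after seeding in 1536-well plates, lung cancer cell lines were treated by pin tool with a single drug, or with a fixed anchor-drug dose together with five library-drug doses (not always all listed) in √10 steps. After 5 days, a combined fix-and-stain solution (final 0.05% Triton X-100, 1% formaldehyde, 1 ug/ml Hoechst) was added. Nuclei counted on 4× images gave relative viability as treated counts over vehicle counts, reported as the median of duplicate plates.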

Compound in experiment [2]: O[C@@H](COc1cccc2ncccc12)CN1CCN([C@@H]2c3ccccc3[C@@H]3[C@H](c4ccccc42)C3(F)F)CC1 [Zosuquidar]
The procedure, abridged:
(§1)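 Viability is treated-well nuclei as a fraction of vehicle-well nuclei, reported as the median across plates. Before counting, lung cancer cell lines were kept overnight at 37 °C in 1536-well plates, pinned with five √10-spaced library-drug doses on vehicle-anchored plates, and left 5 days without medium change, then fixed, permeabilised and Hoechst-stained in one step, imaged at 4× and counted by MetaXpress. A plate passed only if control CV was below 25% and at least one doubling occurred.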

Compound in experiment [3]: C1=CC(=CC=C1NC(=S)NNC2=C(C=C(C=C2[N+](=O)[O-])C(F)(F)F)[N+](=O)[O-])F [Kobe2602]
Put shortly: as §1

Compound in experiment [4]: COc1cc2nccc(Oc3ccc(NC(=O)C4(C(=O)Nc5ccc(F)cc5)CC4)cc3)c2cc1OC [Cabozantinib]
Put shortly: as §1

In the case of UMC-11, the relative viability in experiment [1] (first compound 0.02 µM) was found to be 0.654; in experiment [1] (first compound 0.06325 µM), 0.597; in experiment [1] (first compound 0.2 µM) it was 0.577; in experiment [1] (first compound 0.6325 µM), 0.615; in experiment [1] (first compound 2 µM), 0.554; in experiment [2] (0.01 µM) it was 0.957. Moreover, the relative viability turned out to be 1.04 in experiment [2] (0.03162 µM); 0.908 in experiment [2] (0.1 µM); 1.11 in experiment [2] (0.3162 µM); 0.96 in experiment [2] (1 µM); 1.05 in experiment [3] (0.2 µM); 1.01 in experiment [3] (0.6325 µM). Besides, the relative viability is 1.06 in experiment [3] (2 µM); 0.975 in experiment [3] (6.325 µM); 1.05 in experiment [3] (20 µM); 0.989 in experiment [4] (0.02 µM); 1.11 in experiment [4] (0.06325 µM); 0.963 in experiment [4] (0.2 µM). Moreover, the relative viability in experiment [4] (0.6325 µM) was determined as 1.04; in experiment [4] (2 µM), 1.
